ChEMBL document CHEMBL6103654, “Design, Biological Characterization, and Discovery of Capromorelin Derivatives as Oral Growth Hormone Secretagogue Receptor Type 1a Agonist for the Treatment of Growth Hormone Deficiency” (J Med Chem, 2025)

Legend:
[1] = test system: Rattus norvegicus; experiment: Induction of growth hormone level in Juvenile Sprague-Dawley rat blood at 10 mg/kg, po administered as single dose measured after 10 mins by ELISA method (reference value: 23.2+/-5.6 ng/mL); type: functional
[2] = test system: Rattus norvegicus; experiment: Induction of growth hormone level in Juvenile Sprague-Dawley rat blood at 10 mg/kg, po administered as single dose measured immediately by ELISA method (reference value: 28.5+/-8.7 ng/mL); type: functional
[3] = test system: Rattus norvegicus; experiment: Induction of growth hormone level in Juvenile Sprague-Dawley rat blood at 10 mg/kg, po administered as single dose measured after 4 hrs by ELISA method (reference value: 32.5+/-4.5 ng/mL); type: functional
[4] = test system: Rattus norvegicus; experiment: Induction of growth hormone level in adult Sprague-Dawley rat blood at 10 mg/kg, po administered as single dose measured after 40 mins by ELISA method (reference value: 14.4+/-6.9 ng/mL); type: functional
[5] = test system: Rattus norvegicus; experiment: Induction of growth hormone level in adult Sprague-Dawley rat blood by measuring AUC(0 to 40 mins) at 10 mg/kg, po administered as single dose by ELISA method (reference value: 7.0+/-1.7 ng/mL); type: functional, organism-based
[6] = test system: Rattus norvegicus; experiment: Induction of growth hormone level in adult Sprague-Dawley rat blood at 10 mg/kg, po administered as single dose measured after 20 mins by ELISA method (reference value: 4.9+/-1.1 ng/mL); type: functional
[7] = test system: Rattus norvegicus; experiment: Induction of growth hormone level in Juvenile Sprague-Dawley rat blood at 10 mg/kg, po administered as single dose measured after 2 hrs by ELISA method (reference value: 26.5+/-7.3 ng/mL); type: functional
[8] = test system: Rattus norvegicus; experiment: Induction of growth hormone level in adult Sprague-Dawley rat blood at 10 mg/kg, po administered as single dose measured immediately by ELISA method (reference value: 12.6+/-4.4 ng/mL); type: functional
[9] = test system: Rattus norvegicus; experiment: Induction of growth hormone level in Juvenile Sprague-Dawley rat blood at 10 mg/kg, po administered as single dose measured after 20 mins by ELISA method (reference value: 29.1+/-8.6 ng/mL); type: functional
[10] = test system: Rattus norvegicus; experiment: Induction of growth hormone level in Juvenile Sprague-Dawley rat blood by measuring AUC(0 to 40 mins) at 10 mg/kg, po administered as single dose by ELISA method (reference value: 20.2+/-4.3 ng/mL); type: functional, organism-based
[11] = test system: Rattus norvegicus; experiment: Induction of growth hormone level in Juvenile Sprague-Dawley rat blood at 10 mg/kg, po administered as single dose measured after 40 mins by ELISA method (reference value: 40.1+/-11.0 ng/mL); type: functional
[12] = test system: Rattus norvegicus; experiment: Induction of growth hormone level in adult Sprague-Dawley rat blood at 10 mg/kg, po administered as single dose measured after 10 mins by ELISA method (reference value: 13.7+/-7.2 ng/mL); type: functional
[13] = test system: Rattus norvegicus; experiment: Induction of growth hormone level in Juvenile Sprague-Dawley rat blood at 10 mg/kg, po administered as single dose measured after 1 hr by ELISA method (reference value: 45.2+/-12.5 ng/mL); type: functional

CC(C)(N)C(=O)N[C@H](COCc1ccccc1)C(=O)N1CCC2(CC1)CN(S(C)(=O)=O)c1ccccc12 [IBUTAMOREN]
Activity [1]: 290.9 ng/mL
Activity [2]: 58.1 ng/mL
Activity [3]: 61.3 ng/mL
Activity [4]: 25 ng/mL
AUC [5]: 45.6 ng·h/mL
Activity [6]: 71.3 ng/mL
Activity [7]: 52.4 ng/mL
Activity [8]: 15.4 ng/mL
Activity [9]: 227.8 ng/mL
AUC [10]: 123 ng·h/mL
Activity [11]: 76.3 ng/mL
Activity [12]: 133.9 ng/mL
Activity [13]: 76.2 ng/mL
